Test system: K86415-001-R-J1-PDC complex spheroids, viability
Assay: Anticancer human tumor K86415-001-R-J1-PDC patient-derived lung adenocarcinoma cell line growth inhibition [RAS]
Settings: for viability, T/C: stronger effect = lower value
Method in brief: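 Tumour cells grown as complex spheroids with HUVEC endothelial cells and mesenchymal stem cells, treated with RAS pathway inhibitor combinations. Each agent spans half-log steps from near clinical Cmax, or 10 microM where Cmax is unknown.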
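Further: spheroids exposed to agents for seven days before readout.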

CC(C)n1nc(-c2ccc3oc(N)nc3c2)c2c(N)ncnc21 + CCn1c(-c2cc(N3CCN(C)CC3)cnc2C(C)OC)c2c3cc(ccc31)-c1csc(n1)CC(NC(=O)C1CC1C)C(=O)N1CCCC(N1)C(=O)OCC(C)(C)C2
IC50 (curve of first compound, second compound 0.000949 µM): < 316 pM | IC50 (curve of first compound, second compound 0.003 µM): < 316 pM | IC50 (curve of first compound, second compound 0.00949 µM): < 316 pM | IC50 (curve of first compound, second compound 0.03 µM): < 316 pM | IC50 (curve of first compound, second compound 0.0949 µM): < 316 pM | IC50 (curve of first compound, second compound 0.3 µM): < 316 pM | viability, T/C (second compound 0.000949 µM, first compound 0.000316 µM): 46.4% | viability, T/C (second compound 0.000949 µM, first compound 0.001 µM): 46.7% | viability, T/C (second compound 0.000949 µM, first compound 0.00316 µM): 39.5% | viability, T/C (second compound 0.000949 µM, first compound 0.01 µM): 43.9% | viability, T/C (second compound 0.000949 µM, first compound 0.0316 µM): 35.4% | viability, T/C (second compound 0.000949 µM, first compound 0.1 µM): 20.4% | viability, T/C (second compound 0.003 µM, first compound 0.000316 µM): 23.1% | viability, T/C (second compound 0.003 µM, first compound 0.001 µM): 17.4% | viability, T/C (second compound 0.003 µM, first compound 0.00316 µM): 18.4% | viability, T/C (second compound 0.003 µM, first compound 0.01 µM): 16.3% | viability, T/C (second compound 0.003 µM, first compound 0.0316 µM): 23.8% | viability, T/C (second compound 0.003 µM, first compound 0.1 µM): 7.47% | viability, T/C (second compound 0.00949 µM, first compound 0.000316 µM): 11.5% | viability, T/C (second compound 0.00949 µM, first compound 0.001 µM): 9.33% | viability, T/C (second compound 0.00949 µM, first compound 0.00316 µM): 9.17% | viability, T/C (second compound 0.00949 µM, first compound 0.01 µM): 8.21% | viability, T/C (second compound 0.00949 µM, first compound 0.0316 µM): 3.17% | viability, T/C (second compound 0.00949 µM, first compound 0.1 µM): 2.45% | viability, T/C (second compound 0.03 µM, first compound 0.000316 µM): 5.52% | viability, T/C (second compound 0.03 µM, first compound 0.001 µM): 4.5% | viability, T/C (second compound 0.03 µM, first compound 0.00316 µM): 3.7% | viability, T/C (second compound 0.03 µM, first compound 0.01 µM): 2.13% | viability, T/C (second compound 0.03 µM, first compound 0.0316 µM): 0.97% | viability, T/C (second compound 0.03 µM, first compound 0.1 µM): 1.14% | viability, T/C (second compound 0.0949 µM, first compound 0.000316 µM): 3.75% | viability, T/C (second compound 0.0949 µM, first compound 0.001 µM): 3.4% | viability, T/C (second compound 0.0949 µM, first compound 0.00316 µM): 2.07% | viability, T/C (second compound 0.0949 µM, first compound 0.01 µM): 1.07% | viability, T/C (second compound 0.0949 µM, first compound 0.0316 µM): 0.49% | viability, T/C (second compound 0.0949 µM, first compound 0.1 µM): 0.77% | viability, T/C (second compound 0.3 µM, first compound 0.000316 µM): 2.48% | viability, T/C (second compound 0.3 µM, first compound 0.001 µM): 2.57% | viability, T/C (second compound 0.3 µM, first compound 0.00316 µM): 2.13% | viability, T/C (second compound 0.3 µM, first compound 0.01 µM): 0.8% | viability, T/C (second compound 0.3 µM, first compound 0.0316 µM): 0.57% | viability, T/C (second compound 0.3 µM, first compound 0.1 µM): 0.8%

CC(C)n1nc(-c2ccc3oc(N)nc3c2)c2c(N)ncnc21
viability, T/C (compound 0.000316 µM): 108% [middle of 4 runs] | viability, T/C (compound 0.001 µM): 104% [middle of 4 runs] | viability, T/C (compound 0.00316 µM): 104% [middle of 4 runs] | viability, T/C (compound 0.01 µM): 96.1% [middle of 4 runs] | viability, T/C (compound 0.0316 µM): 64.5% [middle of 4 runs] | viability, T/C (compound 0.1 µM): 32.2% [middle of 4 runs] | IC50 (curve of compound): 52.6 nM [middle of 4 runs]
